Measurements as given in patent US20260218121A1, “METHODS FOR CELL SURFACE REMODELING” (NANTES UNIVERSITÉ, priority 2023, published 2026).

How the values were obtained:
DC2.4 cells = assay: Viability by live and dead assay (electro-bioconjugation or glyco-engineering); details: glyco-engineering (comparative), concentration of 250 μM, 72 h
[1] = Ruben et al., biomacromolecules, 2019, 20, 2726; cited from earlier work

CC(=O)OC[C@H]1OC(OC(C)=O)[C@@H](NC(=O)CN=[N+]=[N-])[C@@H](OC(C)=O)[C@@H]1OC(C)=O (some centres unmarked) [Ac4ManNAz]
viability (DC2.4 cells): 30% | concentration that can be used [1]: ≤ 100 µM
